The values that follow come from ChEMBL document CHEMBL2074565, “Molecular mechanisms of organic cation transport in OCT2-expressing Xenopus oocytes” (Biochim Biophys Acta, 1999).

In series [1] the target is T1, Solute carrier family 22 member 2 (Rattus norvegicus, UniProt Q9R0W2).
T1 sequence (Q9R0W2 whole entry): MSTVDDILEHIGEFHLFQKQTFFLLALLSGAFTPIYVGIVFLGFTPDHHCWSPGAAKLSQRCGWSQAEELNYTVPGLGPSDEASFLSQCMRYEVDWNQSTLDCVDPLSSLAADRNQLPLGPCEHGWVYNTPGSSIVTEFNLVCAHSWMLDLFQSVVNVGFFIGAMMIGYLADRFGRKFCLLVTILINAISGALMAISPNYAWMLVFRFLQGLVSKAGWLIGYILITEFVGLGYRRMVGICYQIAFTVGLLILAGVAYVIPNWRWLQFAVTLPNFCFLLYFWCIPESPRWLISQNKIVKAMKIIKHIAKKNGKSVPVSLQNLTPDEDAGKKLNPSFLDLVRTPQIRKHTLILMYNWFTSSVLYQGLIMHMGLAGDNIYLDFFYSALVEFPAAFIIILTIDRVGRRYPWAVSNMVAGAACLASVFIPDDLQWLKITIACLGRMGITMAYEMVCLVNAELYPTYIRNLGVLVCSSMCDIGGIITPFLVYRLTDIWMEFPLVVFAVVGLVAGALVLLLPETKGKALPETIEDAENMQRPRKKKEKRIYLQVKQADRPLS
As to the kind of experiment: TP_TRANSPORTER: inhibition of TEA uptake (TEA: 100 uM) in Xenopus laevis oocytes. It counts as functional, cell-based, Oocyte.

In series [2] the target is T2, Solute carrier family 22 member 1 (Rattus norvegicus, UniProt Q63089).
T2 sequence (Q63089 whole entry): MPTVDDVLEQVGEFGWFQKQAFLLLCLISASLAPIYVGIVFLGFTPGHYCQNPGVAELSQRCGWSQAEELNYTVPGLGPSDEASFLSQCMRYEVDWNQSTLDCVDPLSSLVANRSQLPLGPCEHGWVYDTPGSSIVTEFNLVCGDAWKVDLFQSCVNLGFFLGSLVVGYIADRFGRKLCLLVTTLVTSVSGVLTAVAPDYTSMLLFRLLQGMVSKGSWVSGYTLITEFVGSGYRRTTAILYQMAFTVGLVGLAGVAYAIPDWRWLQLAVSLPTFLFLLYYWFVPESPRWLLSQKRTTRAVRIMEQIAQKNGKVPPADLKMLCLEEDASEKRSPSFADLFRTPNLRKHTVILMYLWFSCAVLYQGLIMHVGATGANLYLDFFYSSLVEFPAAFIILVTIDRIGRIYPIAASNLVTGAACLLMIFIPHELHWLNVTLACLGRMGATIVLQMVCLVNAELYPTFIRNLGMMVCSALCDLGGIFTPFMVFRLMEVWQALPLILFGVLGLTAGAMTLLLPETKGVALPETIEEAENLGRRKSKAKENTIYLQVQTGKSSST

Series [3] concerns the target T1, Solute carrier family 22 member 2. As to the kind of experiment: TP_TRANSPORTER: inhibition of TEA uptake (TEA: 250 uM, Levofloxacin: 5000 uM) in Xenopus laevis oocytes. The note with it: oocyte. It counts as functional, cell-based.
Substrate in series [4]: CC[N+](CC)(CC)CC
The experiment in a line: cells, lysate or membranes named.

Broadly, the IC50 is the midpoint of a concentration-inhibition curve. Read a low IC50 as greater potency in that assay. For the molecule `C[N+](C)(C)CCO` [CHOLINE], the IC50 came to 159 µM in series [1] and 398 µM in series [2]. The corresponding values for `CN/C(=N/CCSCc1nc[nH]c1C)NC#N` [CIMETIDINE] are 373 µM and 329 µM. Molecule `CCN1/C(=C/c2ccc3ccccc3[n+]2CC)C=Cc2ccccc21` had an IC50 in series [1] of 13.8 µM. Turning to `C[C@H]1COc2c(N3CCN(C)CC3)c(F)cc3c(=O)c(C(=O)O)cn1c23.C[C@H]1COc2c(N3CCN(C)CC3)c(F)cc3c(=O)c(C(=O)O)cn1c23.O` [LEVOFLOXACIN], in series [3], the Activity result was “inhibitor [+]”.

B1: Solute carrier family 22 member 2 (Rattus norvegicus) (protein)
chain: MSTVDDILEHIGEFHLFQKQTFFLLALLSGAFTPIYVGIVFLGFTPDHHCWSPGAAKLSQRCGWSQAEELNYTVPGLGPSDEASFLSQCMRYEVDWNQSTLDCVDPLSSLAADRNQLPLGPCEHGWVYNTPGSSIVTEFNLVCAHSWMLDLFQSVVNVGFFIGAMMIGYLADRFGRKFCLLVTILINAISGALMAISPNYAWMLVFRFLQGLVSKAGWLIGYILITEFVGLGYRRMVGICYQIAFTVGLLILAGVAYVIPNWRWLQFAVTLPNFCFLLYFWCIPESPRWLISQNKIVKAMKIIKHIAKKNGKSVPVSLQNLTPDEDAGKKLNPSFLDLVRTPQIRKHTLILMYNWFTSSVLYQGLIMHMGLAGDNIYLDFFYSALVEFPAAFIIILTIDRVGRRYPWAVSNMVAGAACLASVFIPDDLQWLKITIACLGRMGITMAYEMVCLVNAELYPTYIRNLGVLVCSSMCDIGGIITPFLVYRLTDIWMEFPLVVFAVVGLVAGALVLLLPETKGKALPETIEDAENMQRPRKKKEKRIYLQVKQADRPLS
The term Km denotes the substrate concentration at which the rate is half of its maximum. Consider B1, for which the Michaelis constant (Km) in series [4] was determined as 33.8 µM.
